Test results reported in patent publication US6383276B1, “Azomethine compound and oily magenta ink” (Fuji Photo Film Co., Ltd., priority 1999, dated 2002).

Experiments:
[1] = Absorption maximum and molar extinction coefficient of ethyl acetate solutions; type: physicochemical; details: ethyl acetate solution
Description: With respect to each of the ethyl acetate-base magenta inks [ethyl acetate solutions of the compounds (Ia-1), (Ia-6), (Ia-12), (Ia-13), (Ia-14) and (Ia-15)] prepared in Example 4, the absorption maximum (λmax) and molar extinction coefficient (ε) were measured.
With respect to each of the ethyl acetate-base magenta inks [ethyl acetate solutions of the compounds (X-1), (X-2), (X-3) and (X-4)] prepared in Comparison Example 1, the absorption maximum (λmax) was measured.

[2] = Measurement of solubility in ethyl acetate (Example 6, Comparison Example 1); type: physicochemical; details: 25° C. for 20 hours, filtered through 0.2 μm filter, ink concentrated
Description: With respect to each of the azomethine compounds (Ia-6), (Ia-12) and (Ia-14), 600 mg of the compound was placed in a lidded test tube. After 2 ml of ethyl acetate was added, the mixture was treated with an ultrasonic cleaner for 30 minutes. The resultant liquid was heated and stirred at 65° C. for 1 hour, and then cooled to room temperature. After leaving the test tube in a constant temperature bath at 25° C. for 20 hours, solid particles were filtered off with a micro filter having the pore size of 0.2 μm to prepare an oily magenta ink.
Each prepared ink was concentrated to measure the solubility, but solid (crystallite) was not deposited.
With respect to each of the following azomethine compounds (X-1), (X-2), (X-3) and (X-4), 30 mg of the compound was placed in a lidded test tube. After 2 ml of ethyl acetate was added, the mixture was treated with an ultrasonic cleaner for 30 minutes. The resultant liquid was heated and stirred at 65° C. for 1 hour, and then cooled to room temperature. After leaving the test tube in a constant temperature bath at 25° C. for 20 hours, solid particles were filtered off with a micro filter having the pore size of 0.2 μm to prepare an oily magenta ink. [drawing 13]
Each prepared ink was concentrated to measure the solubility.

## CCCCCCC(Oc1ccc(C(C)(C)CC)cc1C(C)(C)CC)C(=O)NCC(C)c1nc2n(n1)N=C(C)C2=Nc1ccc(N(CC)CCC#N)cc1 (stereo not drawn) [Ia-1]
[1]; Table 1
  Absorption maximum (λmax): 512 nm
  Molar extinction coefficient (ε): 5.0 × 10^4

## CCCCCCC(Oc1ccc(C(C)(C)CC)cc1C(C)(C)CC)C(=O)NCC(C)c1nc2n(n1)N=C(C)C2=Nc1ccc(N(CCO)CCC#N)cc1C (stereo not drawn) [Ia-6]
[2]
  Solubility: 30.2 wt. % or more
[1]; Table 1
  Absorption maximum (λmax): 522 nm
  Molar extinction coefficient (ε): 5.2 × 10^4
[1]; Table 2
  Absorption maximum (λmax): 522 nm

## CCCCCCCCCCCCCCOC(=O)CCC(=O)Nc1ccc(-c2nc3n(n2)N=C(C(C)(C)C)C3=Nc2ccc(N(CCC#N)CCCC)cc2)cc1 [Ia-12]
[2]
  Solubility: 30.1 wt. % or more
[1]; Table 1
  Absorption maximum (λmax): 519 nm
  Molar extinction coefficient (ε): 4.8 × 10^4
[1]; Table 2
  Absorption maximum (λmax): 519 nm

## CCCCCCC(Oc1ccc(C(C)(C)CC)cc1C(C)(C)CC)C(=O)Nc1ccc(-c2nc3n(n2)N=C(C(C)(C)C)C3=Nc2ccc(N(CC)CCC#N)cc2)cc1 (stereo not drawn) [Ia-13]
[1]; Table 1
  Absorption maximum (λmax): 517 nm
  Molar extinction coefficient (ε): 4.6 × 10^4

## CCCCCCC(Oc1ccc(C(C)(C)CC)cc1C(C)(C)CC)C(=O)Nc1ccc(-c2nc3n(n2)N=C(C(C)(C)C)C3=Nc2ccc(N(CCC#N)CCCC)cc2)cc1 (stereo not drawn) [Ia-14]
[2]
  Solubility: 30.1 wt. % or more
[1]; Table 1
  Absorption maximum (λmax): 520 nm
  Molar extinction coefficient (ε): 4.8 × 10^4
[1]; Table 2
  Absorption maximum (λmax): 520 nm

## CCCCCCC(Oc1ccc(C(C)(C)CC)cc1C(C)(C)CC)C(=O)Nc1ccc(-c2nc3n(n2)N=C(C(C)(C)C)C3=Nc2ccc(N(CCO)CCC#N)cc2C)cc1 (stereo not drawn) [Ia-15]
[1]; Table 1
  Absorption maximum (λmax): 532 nm
  Molar extinction coefficient (ε): 4.9 × 10^4

## COc1ccc(OCCN(CCC#N)c2ccc(N=C3C(C)=Nn4nc(C(C)CN5C(=O)c6ccccc6C5=O)nc43)cc2)cc1 (stereo not drawn) [X-1, reference compound]
[2]
  Solubility: 0.18 wt. %
[1]; Table 2
  Absorption maximum (λmax): 504 nm

## CCN(CCC#N)c1ccc(N=C2C(C)=Nn3nc(C(C)CNC(=O)CCCOc4ccc(OC)cc4)nc32)cc1 (stereo not drawn) [X-3, reference compound]
[2]
  Solubility: 1.72 wt. %
[1]; Table 2
  Absorption maximum (λmax): 511 nm

## CCN(CC)c1ccc(N=C2C(C)=Nn3nc(C(C)CNC(=O)CCCOc4ccc(OC)cc4)nc32)c(C)c1 (stereo not drawn) [X-4, reference compound]
[2]
  Solubility: 0.63 wt. %
[1]; Table 2
  Absorption maximum (λmax): 536 nm
